Active and inactive are the calls of the source.
Key:
[1] = target: Oxytocin receptor (Homo sapiens, UniProt P30559); experiment: Fluorescence-based cell-based high throughput dose response assay for agonists of the Oxytocin Receptor (OXTR). [Related pubchem assays: 2435 (Primary screen (OXTR agonists in singlicate)), 434991 (Counterscreen (V1R agonists in triplicate)), 2482 (Summary (OXTR agonists)), 434963 (Confirmation screen (OXTR agonists in triplicate))]; type: functional
[2] = target: Vasopressin V1a receptor (Homo sapiens, UniProt P37288); experiment: Counterscreen for Oxytocin Receptor (OXTR) agonists: Fluorescence-based cell-based high throughput dose response assay to identify agonists of the vasopressin 1 receptor (V1R). [Related pubchem assays: 2435 (Primary screen (OXTR agonists in singlicate)), 434991 (Counterscreen (V1R agonists in triplicate)), 2482 (Summary (OXTR agonists)) …; type: functional
Vasopressin V1a receptor, sequence (P37288 whole entry): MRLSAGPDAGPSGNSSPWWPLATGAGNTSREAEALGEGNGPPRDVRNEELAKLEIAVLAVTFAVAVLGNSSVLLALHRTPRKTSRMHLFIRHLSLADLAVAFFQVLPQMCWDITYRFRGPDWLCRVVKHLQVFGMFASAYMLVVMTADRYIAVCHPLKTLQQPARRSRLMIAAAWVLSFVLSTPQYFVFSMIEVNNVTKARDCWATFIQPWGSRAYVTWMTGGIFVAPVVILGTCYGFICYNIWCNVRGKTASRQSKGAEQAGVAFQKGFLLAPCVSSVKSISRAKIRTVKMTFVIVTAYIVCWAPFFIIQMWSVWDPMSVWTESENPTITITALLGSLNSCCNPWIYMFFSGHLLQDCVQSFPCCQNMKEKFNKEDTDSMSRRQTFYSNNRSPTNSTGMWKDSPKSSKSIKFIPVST

[3] = target: T1, Eukaryotic translation initiation factor 2-alpha kinase 3 (Homo sapiens, UniProt Q9NZJ5); experiment: Dose response cell-based high-throughput screening assay to measure PERK inhibition. [Related pubchem assays: 1416 ]; type: functional
T1 sequence (Q9NZJ5 whole entry): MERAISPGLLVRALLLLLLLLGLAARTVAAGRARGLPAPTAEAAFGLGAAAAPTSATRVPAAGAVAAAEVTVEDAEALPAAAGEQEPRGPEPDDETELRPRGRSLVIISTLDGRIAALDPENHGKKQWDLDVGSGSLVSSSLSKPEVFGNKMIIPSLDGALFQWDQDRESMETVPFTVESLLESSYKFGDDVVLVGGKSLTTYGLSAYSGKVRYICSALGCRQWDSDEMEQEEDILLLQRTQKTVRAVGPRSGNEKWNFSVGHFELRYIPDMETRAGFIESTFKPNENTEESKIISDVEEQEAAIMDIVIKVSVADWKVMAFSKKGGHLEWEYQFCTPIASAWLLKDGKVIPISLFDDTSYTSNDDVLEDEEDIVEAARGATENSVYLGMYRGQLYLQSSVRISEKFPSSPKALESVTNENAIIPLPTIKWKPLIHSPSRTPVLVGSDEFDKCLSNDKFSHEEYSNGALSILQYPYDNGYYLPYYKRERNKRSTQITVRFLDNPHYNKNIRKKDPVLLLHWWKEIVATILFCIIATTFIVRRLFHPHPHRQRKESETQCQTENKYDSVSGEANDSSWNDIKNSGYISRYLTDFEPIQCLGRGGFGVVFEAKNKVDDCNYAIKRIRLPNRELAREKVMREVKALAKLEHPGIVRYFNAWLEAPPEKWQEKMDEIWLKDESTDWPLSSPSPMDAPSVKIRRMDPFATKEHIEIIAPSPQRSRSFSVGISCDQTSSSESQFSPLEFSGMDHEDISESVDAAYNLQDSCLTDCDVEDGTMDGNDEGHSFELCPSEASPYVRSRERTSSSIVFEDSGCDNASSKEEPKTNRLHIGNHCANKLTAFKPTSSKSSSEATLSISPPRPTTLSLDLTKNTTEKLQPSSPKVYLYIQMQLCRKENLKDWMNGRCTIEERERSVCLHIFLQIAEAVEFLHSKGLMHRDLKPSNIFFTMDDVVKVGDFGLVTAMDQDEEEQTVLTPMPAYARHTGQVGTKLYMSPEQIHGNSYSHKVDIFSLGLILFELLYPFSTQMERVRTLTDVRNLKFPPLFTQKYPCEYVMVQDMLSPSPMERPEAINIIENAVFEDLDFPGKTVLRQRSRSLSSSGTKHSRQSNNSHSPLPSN

[4] = target: T1, Eukaryotic translation initiation factor 2-alpha kinase 3; experiment: Counterscreen assay for PERK inhibitors: Dose response cell-based high throughput screening assay to measure inhibition of PERK at 6 hours. [Related pubchem assays: 1522, 1416 ]; type: functional
[5] = target: Lysosomal acid glucosylceramidase (Homo sapiens, UniProt P04062); experiment: Dose response cell-based high throughput screening assay to identify enhancers of beta-glucosidase activity. [Related pubchem assays: 784 ]; type: functional
Lysosomal acid glucosylceramidase, sequence (P04062 whole entry): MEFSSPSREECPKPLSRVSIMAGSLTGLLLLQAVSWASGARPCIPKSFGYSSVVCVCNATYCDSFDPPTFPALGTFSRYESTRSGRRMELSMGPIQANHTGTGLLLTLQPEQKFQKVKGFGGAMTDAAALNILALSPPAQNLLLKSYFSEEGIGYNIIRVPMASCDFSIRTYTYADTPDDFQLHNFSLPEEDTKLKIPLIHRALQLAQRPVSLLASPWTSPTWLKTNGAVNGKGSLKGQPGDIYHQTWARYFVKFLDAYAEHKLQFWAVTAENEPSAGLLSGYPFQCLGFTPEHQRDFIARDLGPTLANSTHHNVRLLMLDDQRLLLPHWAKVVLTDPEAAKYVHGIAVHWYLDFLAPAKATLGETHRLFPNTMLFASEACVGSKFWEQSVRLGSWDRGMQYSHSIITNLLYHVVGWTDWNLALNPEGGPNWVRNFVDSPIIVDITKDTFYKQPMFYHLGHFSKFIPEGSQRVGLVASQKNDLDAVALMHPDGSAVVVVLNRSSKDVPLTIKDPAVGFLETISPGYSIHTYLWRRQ

[6] = HEp-2 cell cytotoxicity, dose response, cytotoxicity control for RSV inhibitor project, HTS (AID 2410); type: functional; conditions: human respiratory syncytial virus
[7] = NIH-3T3 fibroblast cytotoxicity, dose response, cytotoxicity control, cell-based, fluorescence, Alamar Blue, secondary assay (AID 2327); type: functional;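 further: NIH-3T3 mouse fibroblasts cultured with fluconazole at 8 µg/mL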
[8] = cells
[9] = C. albicans growth with fluconazole, confirmation, fluorescence, retest (AID 2467); type: functional, cell-based
[10] = target: T2, Microphthalmia-associated transcription factor (Homo sapiens, UniProt O75030); experiment: TRPM1 promoter luciferase signal decrease, dose response, MITF inhibitor project, cell-based, SK-MEL-5, cherry-picked, set 3 (AID 493073); type: functional
T2 sequence (O75030 whole entry): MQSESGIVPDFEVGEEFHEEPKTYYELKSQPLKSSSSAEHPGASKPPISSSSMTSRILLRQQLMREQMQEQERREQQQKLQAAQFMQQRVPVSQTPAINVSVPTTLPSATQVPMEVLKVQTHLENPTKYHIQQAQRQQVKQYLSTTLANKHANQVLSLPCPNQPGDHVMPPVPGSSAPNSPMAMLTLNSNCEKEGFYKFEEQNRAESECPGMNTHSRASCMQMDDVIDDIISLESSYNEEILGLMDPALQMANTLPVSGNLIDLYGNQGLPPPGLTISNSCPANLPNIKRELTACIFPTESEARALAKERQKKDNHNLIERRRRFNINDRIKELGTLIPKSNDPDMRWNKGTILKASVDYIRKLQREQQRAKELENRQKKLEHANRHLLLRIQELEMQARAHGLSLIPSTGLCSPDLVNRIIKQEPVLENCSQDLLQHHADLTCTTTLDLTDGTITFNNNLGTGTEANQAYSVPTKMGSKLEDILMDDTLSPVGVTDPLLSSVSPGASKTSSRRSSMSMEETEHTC

[11] = target: Luciferin 4-monooxygenase (Photinus pyralis, UniProt P08659); experiment: Counter Screen for Luciferase-based Assay Positives. [Related pubchem assays: 620, 618, 411 ]
Luciferin 4-monooxygenase, sequence (P08659 whole entry): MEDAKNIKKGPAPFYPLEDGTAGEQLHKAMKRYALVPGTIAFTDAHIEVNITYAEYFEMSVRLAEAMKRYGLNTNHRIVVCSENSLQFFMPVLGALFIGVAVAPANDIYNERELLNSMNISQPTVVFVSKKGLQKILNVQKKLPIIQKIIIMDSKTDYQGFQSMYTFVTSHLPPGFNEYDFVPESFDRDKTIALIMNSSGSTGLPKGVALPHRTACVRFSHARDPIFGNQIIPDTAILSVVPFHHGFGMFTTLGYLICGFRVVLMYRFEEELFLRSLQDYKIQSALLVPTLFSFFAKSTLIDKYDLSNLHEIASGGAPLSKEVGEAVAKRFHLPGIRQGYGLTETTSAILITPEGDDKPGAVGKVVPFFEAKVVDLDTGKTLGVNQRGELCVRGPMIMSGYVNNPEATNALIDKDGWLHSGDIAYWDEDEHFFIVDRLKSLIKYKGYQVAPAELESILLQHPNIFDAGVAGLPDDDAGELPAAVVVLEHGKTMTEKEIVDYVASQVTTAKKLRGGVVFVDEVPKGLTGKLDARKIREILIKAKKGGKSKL

[12] = target: Genome polyprotein (dengue virus type 2, UniProt P29990); experiment: Dengue-2 NS5 methyltransferase inhibitors, primary screen, biochemical, confirmation dose response (AID 588689); type: functional
Genome polyprotein, sequence (P29990 2492-3391 limits assumed): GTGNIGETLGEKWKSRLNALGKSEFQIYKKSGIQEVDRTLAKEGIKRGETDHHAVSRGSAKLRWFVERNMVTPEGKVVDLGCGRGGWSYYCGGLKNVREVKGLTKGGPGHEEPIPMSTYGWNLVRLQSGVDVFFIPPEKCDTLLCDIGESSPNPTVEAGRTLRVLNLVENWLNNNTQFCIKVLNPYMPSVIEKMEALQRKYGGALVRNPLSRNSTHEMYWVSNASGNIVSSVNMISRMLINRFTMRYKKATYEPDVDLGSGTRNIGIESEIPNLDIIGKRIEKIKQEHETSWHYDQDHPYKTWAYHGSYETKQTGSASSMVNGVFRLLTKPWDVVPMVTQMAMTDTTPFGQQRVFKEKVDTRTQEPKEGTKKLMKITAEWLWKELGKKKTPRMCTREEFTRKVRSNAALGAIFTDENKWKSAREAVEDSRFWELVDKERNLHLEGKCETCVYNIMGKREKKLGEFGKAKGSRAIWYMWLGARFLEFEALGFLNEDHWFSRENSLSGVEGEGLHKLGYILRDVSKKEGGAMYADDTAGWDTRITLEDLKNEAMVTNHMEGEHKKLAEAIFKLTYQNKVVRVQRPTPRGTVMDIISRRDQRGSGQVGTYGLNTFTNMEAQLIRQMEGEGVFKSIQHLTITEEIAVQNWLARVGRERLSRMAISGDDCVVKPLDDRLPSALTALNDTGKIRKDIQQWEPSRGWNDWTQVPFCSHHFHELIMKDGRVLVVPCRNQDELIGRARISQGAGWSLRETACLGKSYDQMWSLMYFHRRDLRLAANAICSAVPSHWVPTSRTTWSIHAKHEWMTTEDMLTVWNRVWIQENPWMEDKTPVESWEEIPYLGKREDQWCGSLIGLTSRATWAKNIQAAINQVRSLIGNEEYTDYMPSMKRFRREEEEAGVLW

[13] = target: Intestinal-type alkaline phosphatase (Homo sapiens, UniProt P09923); experiment: Dose Response confirmation of uHTS hits from a small molecule inhibitors of human intestinal alkaline phosphatase via a luminescent assay. [Related pubchem assays (depositor defined):AID2544, AID2574]; type: functional
Intestinal-type alkaline phosphatase, sequence (P09923 whole entry): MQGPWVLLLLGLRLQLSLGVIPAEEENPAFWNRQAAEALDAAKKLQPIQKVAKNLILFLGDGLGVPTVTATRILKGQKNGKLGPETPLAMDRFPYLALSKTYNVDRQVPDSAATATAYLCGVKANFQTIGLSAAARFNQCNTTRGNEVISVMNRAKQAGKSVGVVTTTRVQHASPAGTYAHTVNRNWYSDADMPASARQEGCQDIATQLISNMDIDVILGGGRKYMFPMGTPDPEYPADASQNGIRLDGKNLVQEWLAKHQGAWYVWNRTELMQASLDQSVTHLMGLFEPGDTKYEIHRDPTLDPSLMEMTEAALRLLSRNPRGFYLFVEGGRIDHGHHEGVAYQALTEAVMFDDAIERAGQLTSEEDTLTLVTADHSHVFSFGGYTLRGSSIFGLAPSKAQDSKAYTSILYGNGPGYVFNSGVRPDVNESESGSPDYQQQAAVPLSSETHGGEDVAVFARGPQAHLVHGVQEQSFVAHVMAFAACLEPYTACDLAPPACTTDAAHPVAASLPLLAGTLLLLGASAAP

[14] = system: Streptococcus; experiment: Luminescence Microorganism-Based Dose Response Follow up to Identify Compounds Cytotoxic to Streptococcus. [Related pubchem assays: 1677 (Project Summary), 1915, 1914, 1902 (Retest at Dose), 1900 (Counter Screen), 1662 (Primary HTS)]; type: functional, organism-based
[15] = target: T3, High affinity choline transporter 1 (Homo sapiens, UniProt Q9GZV3); experiment: CHT inhibitors, dose response, cell-based, 5-point CRC, membrane potential dye (AID 504840); type: functional
T3 sequence (Q9GZV3 whole entry): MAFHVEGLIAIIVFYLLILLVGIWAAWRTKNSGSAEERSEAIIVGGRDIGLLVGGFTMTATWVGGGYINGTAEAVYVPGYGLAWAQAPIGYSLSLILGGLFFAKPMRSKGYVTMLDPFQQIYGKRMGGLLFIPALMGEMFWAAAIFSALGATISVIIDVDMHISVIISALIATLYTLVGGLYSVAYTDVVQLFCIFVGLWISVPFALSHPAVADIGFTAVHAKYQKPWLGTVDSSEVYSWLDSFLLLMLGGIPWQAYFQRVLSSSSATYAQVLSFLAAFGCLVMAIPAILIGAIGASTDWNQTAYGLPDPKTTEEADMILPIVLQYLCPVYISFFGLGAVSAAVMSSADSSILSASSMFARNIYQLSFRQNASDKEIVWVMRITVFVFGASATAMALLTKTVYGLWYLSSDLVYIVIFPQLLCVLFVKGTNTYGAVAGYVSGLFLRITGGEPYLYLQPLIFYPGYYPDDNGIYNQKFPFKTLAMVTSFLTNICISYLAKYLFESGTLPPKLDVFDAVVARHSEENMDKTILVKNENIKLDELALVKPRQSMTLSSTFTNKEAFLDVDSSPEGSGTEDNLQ

[16] = target: T4, Cysteine protease ATG4B (Homo sapiens, UniProt Q9Y4P1); type: functional;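 further: Fluorescence-based dose-response confirmation assay measuring inhibition of ATG4B activity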
T4 sequence (Q9Y4P1 whole entry): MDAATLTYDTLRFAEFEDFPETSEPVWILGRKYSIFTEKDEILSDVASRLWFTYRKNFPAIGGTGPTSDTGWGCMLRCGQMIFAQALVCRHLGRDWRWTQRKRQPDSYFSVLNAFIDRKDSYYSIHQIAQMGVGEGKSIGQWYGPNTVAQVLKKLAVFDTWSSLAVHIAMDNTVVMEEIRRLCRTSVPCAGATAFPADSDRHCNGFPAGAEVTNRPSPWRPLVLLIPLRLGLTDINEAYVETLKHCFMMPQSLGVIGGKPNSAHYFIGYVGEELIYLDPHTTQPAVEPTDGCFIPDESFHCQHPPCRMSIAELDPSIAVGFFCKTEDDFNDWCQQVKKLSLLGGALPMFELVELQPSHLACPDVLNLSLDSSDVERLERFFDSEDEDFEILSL

[17] = HIV-1 Env-mediated cell fusion inhibitors, dose response, CCR5-tropic Env (AID 2279); type: functional
[18] = target: Phospholipase A2 (Homo sapiens, UniProt P04054); type: functional;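 further: confirmatory dose-response counterscreen on phospholipase A2, testing hits that came from an ultra-high-throughput screen for ATG4B inhibitors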
Phospholipase A2, sequence (P04054 whole entry): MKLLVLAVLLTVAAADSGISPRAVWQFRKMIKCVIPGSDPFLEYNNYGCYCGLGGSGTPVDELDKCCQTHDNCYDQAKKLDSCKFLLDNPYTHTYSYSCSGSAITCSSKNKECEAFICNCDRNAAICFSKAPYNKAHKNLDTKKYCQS

[19] = target: FAD-linked sulfhydryl oxidase ALR (Homo sapiens, UniProt P55789); experiment: inhibitors of human ALR sulfhydryl oxidase, dose response, biochemical, H2O2 detection, luminescence, cherry-pick (AID 493248)
FAD-linked sulfhydryl oxidase ALR, sequence (P55789 whole entry): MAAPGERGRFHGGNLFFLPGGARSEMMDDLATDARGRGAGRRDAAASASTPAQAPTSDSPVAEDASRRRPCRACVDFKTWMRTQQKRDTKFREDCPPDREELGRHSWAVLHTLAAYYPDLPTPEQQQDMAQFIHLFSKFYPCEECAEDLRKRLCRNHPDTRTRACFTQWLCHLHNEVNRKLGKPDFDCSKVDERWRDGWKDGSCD

[20] = target: Glyceraldehyde-3-phosphate dehydrogenase (Homo sapiens, UniProt P04406)
Glyceraldehyde-3-phosphate dehydrogenase, sequence (P04406 whole entry): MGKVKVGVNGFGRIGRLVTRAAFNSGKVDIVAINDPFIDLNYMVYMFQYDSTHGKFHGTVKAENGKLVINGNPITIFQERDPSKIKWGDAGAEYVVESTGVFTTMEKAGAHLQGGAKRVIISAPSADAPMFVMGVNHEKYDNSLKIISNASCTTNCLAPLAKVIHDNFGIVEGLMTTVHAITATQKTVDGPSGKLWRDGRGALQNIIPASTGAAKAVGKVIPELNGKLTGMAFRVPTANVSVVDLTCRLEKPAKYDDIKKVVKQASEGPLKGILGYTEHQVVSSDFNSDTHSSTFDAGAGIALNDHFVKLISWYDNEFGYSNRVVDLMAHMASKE

[21] = target: Scavenger receptor class B member 1 (Mus musculus, UniProt Q61009); experiment: inhibitors of SR-BI mediated HDL lipid uptake, dose response, ldlA[mSR-BI] cells, fluorescence, cherry pick (AID 493194); type: functional, cell-based;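 further: cellular uptake of fluorescent DiI-labeled HDL measured as cell fluorescence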
Scavenger receptor class B member 1, sequence (Q61009 whole entry): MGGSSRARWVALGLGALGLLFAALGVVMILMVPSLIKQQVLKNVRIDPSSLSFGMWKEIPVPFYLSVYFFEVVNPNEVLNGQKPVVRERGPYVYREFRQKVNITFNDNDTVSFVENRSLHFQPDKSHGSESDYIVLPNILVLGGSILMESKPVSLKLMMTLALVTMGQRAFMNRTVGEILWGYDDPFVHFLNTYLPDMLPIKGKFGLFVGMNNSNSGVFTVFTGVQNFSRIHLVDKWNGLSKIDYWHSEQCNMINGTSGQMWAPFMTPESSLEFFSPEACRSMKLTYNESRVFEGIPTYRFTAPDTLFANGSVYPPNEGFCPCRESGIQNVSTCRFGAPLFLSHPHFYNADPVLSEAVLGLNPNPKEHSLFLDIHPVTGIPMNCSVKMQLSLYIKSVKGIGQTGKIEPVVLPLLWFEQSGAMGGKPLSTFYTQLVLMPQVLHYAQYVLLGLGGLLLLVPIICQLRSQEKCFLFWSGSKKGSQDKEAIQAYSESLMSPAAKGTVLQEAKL

[22] = system: Vero; experiment: cells; type: functional, cell-based; conditions: Chlorocebus sabaeus

Oxytocin receptor, sequence (P30559 whole entry): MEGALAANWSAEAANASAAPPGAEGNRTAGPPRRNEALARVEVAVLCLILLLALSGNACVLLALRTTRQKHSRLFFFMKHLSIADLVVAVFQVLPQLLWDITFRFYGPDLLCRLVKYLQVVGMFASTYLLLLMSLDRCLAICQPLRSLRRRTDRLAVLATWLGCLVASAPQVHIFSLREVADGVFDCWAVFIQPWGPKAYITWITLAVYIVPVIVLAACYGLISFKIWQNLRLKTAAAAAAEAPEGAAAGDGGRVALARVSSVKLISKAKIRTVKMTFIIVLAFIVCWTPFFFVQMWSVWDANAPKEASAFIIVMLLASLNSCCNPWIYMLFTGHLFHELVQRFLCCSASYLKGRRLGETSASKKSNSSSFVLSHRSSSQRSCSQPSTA

With `COC(C(=O)Nc1ccc(S(=O)(=O)Nc2ccc(F)cc2)cc1)c1ccccc1` (stereo not drawn) the EC50 [1] was > 29.9 µM (not active) and the EC50 [2] was > 29.9 µM (not active).
With `Cn1cc(NC(=O)Nc2ccc(C(F)(F)F)cc2)c(C(F)(F)F)n1` the EC50 [3] was > 55.7 µM (not active) and the EC50 [4] was > 55.7 µM (not active).
With `COCc1cc(C)nc(NC2CCCCC2)c1C#N` the EC50 [5] was > 50 µM (not active).
In the case of `O=C(c1ccc(C(=O)N2CCCc3ccccc32)s1)N1CCCc2ccccc21`, the CC50 [6] is reported as > 50 µM (active), the EC50 [7] is reported as 20.7 µM (inconclusive) and the IC50 [8] is reported as > 50 µM (active). The EC50 [9] was 2.45 µM (active).
For `O=C(NCc1cccs1)c1nc2c(nnn2Cc2ccccc2Cl)c(=O)[nH]1`, the AC50 [10] was 6.66 µM (active), the EC50 [11] was 15.4 µM (active) and the IC50 [12] was 51.8 µM (active).
With `CC(Sc1ccc(Cl)cc1)C(=O)Nc1ccc(S(=O)(=O)N2CCOCC2)cc1` (stereo not drawn) the EC50 [1] was > 29.9 µM (not active) and the EC50 [2] was > 29.9 µM (not active).
With `N#Cc1cc(Oc2ccccc2)c(-n2nnc3ccccc32)cc1C#N` the IC50 [13] was > 100 µM (inactive).
For `O=C(c1ccccc1C(F)(F)F)n1c2ccccc2c2ccccc21`, the EC50 [14] was > 500 µM (not active).
In the case of `COc1ccc(/C=C2/SC(=O)N(CCCCCC(=O)Nc3ccccc3C(=O)O)C2=S)cc1`, the IC50 [15] is reported as 13.8 µM (active), the IC50 [16] is reported as 14.5 µM (active) and the IC50 [17] is reported as > 50 µM (active). For the same molecule, the IC50 [18] was 5.25 µM (active) and the AC50 [19] was 3.05 µM (active).
For `NS(=O)(=O)c1ccc2[nH]c3c(c2c1)CCCC3`, the IC50 [20] was > 100 µM (not active).
For `Cc1cc(C)c(NC2=NS(=O)(=O)c3ccccc32)c(C)c1`, the EC50 [3] was > 55.7 µM (not active) and the EC50 [4] was > 55.7 µM (not active).
For `Cc1ccc(NC(=O)c2ccc3c(c2)CCN3S(C)(=O)=O)cc1C`, the AC50 [21] was 23.8 µM (active).
In the case of `Cc1ccc(CSCC(=O)Nc2ccccc2C(=O)O)cc1`, the CC50 [6] is reported as 21.9 µM (active), the IC50 [8] is reported as 9.39 µM (active) and the IC50 [22] is reported as 12.2 µM (active).

From ChEMBL document CHEMBL1201862, “PubChem BioAssay data set” (2004)
